Molecular target: T1, 15N-labeled carbohydrate recognition domain (CRD) of DC-SIGN (Homo sapiens, UniProt Q9NNX6)
T1 sequence (Q9NNX6 250-404 limits assumed): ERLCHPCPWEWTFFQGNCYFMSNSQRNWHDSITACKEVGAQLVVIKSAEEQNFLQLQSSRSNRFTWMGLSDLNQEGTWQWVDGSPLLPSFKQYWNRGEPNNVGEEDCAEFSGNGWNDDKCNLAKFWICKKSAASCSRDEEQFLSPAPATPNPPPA
Assay: 1H-15N HSQC titration, chemical shift perturbation
Type: binding

CC(=O)N[C@H]1[C@H](O[C@H]2[C@H](O[C@@H]3O[C@@H](C)[C@@H](O)[C@@H](O)[C@@H]3O)[C@@H](NC(C)=O)[C@H](OCCCCCN)O[C@@H]2CO)O[C@H](CO)[C@H](O)[C@@H]1O [compound 12, LDN-F]
Kd: 1.5 ± 0.4 mM

Reference: publication PMC7894523 (Chemistry (Weinheim an Der Bergstrasse, Germany), 2020)
